Key:
Type in all cases: in vivo
[1] = tested on: Spodoptera eridania, 2nd instar larvae, southern armyworm (SAW); test: Southern armyworm (SAW) leaf dip test; set-up: key: 0 = no effect; 1 = 10-25% kill; 2 = 26-35% kill; 3 = 36-45% kill; 4 = 46-55% kill; 5 = 56-65% kill; 6 = 66-75% kill; 7 = 76-85% kill; 8 = 86-99% kill; 9 = 100% kill
Method: (§1) Test solutions are prepared by dissolving the test compound in a 35% acetone in water mixture to give a concentration of 10,000 ppm. Subsequent dilutions are made with water as needed.
Spodoptera eridania, 2nd Instar Larvae, Southern Armyworm (SAW)
A Sieva lima bean leaf expanded to 7-8 cm in length is dipped in the test solution with agitation for 3 seconds and allowed to dry in a hood. The leaf is then placed in a 100×10 mm petri dish containing a damp filter paper on the bottom and ten 2nd instar caterpillars. At 5 days, observations are made of mortality, reduced feeding, or any interference with normal molting.

[2] = tested on: M. incognita (Root Knot Nematode) larvae; test: Evaluation of test compounds against M. incognita larvae in microtiter plate wells (movement score); conditions: larvae scored for movement after 20-24 hours; note: key: A score of '9' indicates inactive worms with a straight, sticklike morphology; A score of '8' indicates inactive worms with a limp, curled or curved morphology; A score of '7' indicates dead/paralyzed worms after 72 hours
Method: Evaluation of Test Compounds Against M. incognita (Root Knot Nematode)
Newly emerged M. incognita larvae are suspended in S Medium (buffered salt solution) to a concentration of 50-65 worms per 50 μl. 50 μl of the worm suspension are pipetted into microtiter plate wells containing the test compounds. The plates are then covered with plactic plate sealers to reduce loss of volume by evaporation. After 20-24 hours of incubation, the larvae are scored for movement. Wells containing obviously dead/paralyzed larvae are scored as positive. […] A score of “7” indicates dead/paralyzed worms after […].

[3] = tested on: Aphis gossypii, cotton aphid (CA); test: Cotton aphid (CA) cotyledon dip test; set-up: key: 0 = no effect; 1 = 10-25% kill; 2 = 26-35% kill; 3 = 36-45% kill; 4 = 46-55% kill; 5 = 56-65% kill; 6 = 66-75% kill; 7 = 76-85% kill; 8 = 86-99% kill; 9 = 100% kill; conditions: mortality after 5 days
Method: Test solutions are prepared by dissolving the test compound in a 35% acetone in water mixture to give a concentration of 10,000 ppm. Subsequent dilutions are made with water as needed. Aphis gossypii, Cotton Aphid (CA) Cotton plants at the cotyledon stage are selected and cut back to one plant per pot. A heavily infested leaf is taken from the main colony and placed on top of each cotyledon. The aphids are allowed to transfer to the host plant overnight. At the time of test treatment, the leaf used to transfer the aphids is removed and discarded. The cotyledons are dipped in the test solution and allowed to dry. After 5 days, mortality counts are made. [table]

[4] = tested on: Diabrotica undecimpunctata howardi, eggs-southern corn rootworm (SCR-Eggs); test: Southern corn rootworm eggs (SCR-Eggs) treated diet test; set-up: key: 0 = no effect; 1 = 10-25% kill; 2 = 26-35% kill; 3 = 36-45% kill; 4 = 46-55% kill; 5 = 56-65% kill; 6 = 66-75% kill; 7 = 76-85% kill; 8 = 86-99% kill; 9 = 100% kill; conditions: mortality after 7 days
Method: Test solutions are prepared by dissolving the test compound in a 35% acetone in water mixture to give a concentration of 10,000 ppm. Subsequent dilutions are made with water as needed. Spodoptera eridania, Eggs-southern Armyworm and Diabrotica undecimpunctata howardi, Eggs-southern Corn Rootworm (SAW-Eggs) and (SCR-Eggs) Wells containing artificial diet are treated with the test solutions and dried. The appropriate insect eggs are then placed in the wells. The wells are covered with vented, adhesive, clear plastic covers. After 7 days, mortality counts are made. [table]

[5] = tested on: Diabrotica virgifera virgifera Leconte, 2nd instar western corn rootworm (WCR); test: Western corn rootworm (WCR) soil test; set-up: key: 0 = no effect; 1 = 10-25% kill; 2 = 26-35% kill; 3 = 36-45% kill; 4 = 46-55% kill; 5 = 56-65% kill; 6 = 66-75% kill; 7 = 76-85% kill; 8 = 86-99% kill; 9 = 100% kill
Method: Test solutions are prepared by dissolving the test compound in a 35% acetone in water mixture to give a concentration of 10,000 ppm. Subsequent dilutions are made with water as needed. Diabrotica virgifera virgifera Leconte, 2nd Instar Western Corn Rootworm (WCR) One cc of fine talc is placed in a 30 mL wide-mouth screw-top glass jar. One mL of the appropriate acetone test solution is pipetted onto the talc so as to provide 1.25 mg of active ingredient per jar. The jars are set under a gentle air flow until the acetone is evaporated. The dried talc is loosened, 1 cc of millet seed is added to serve as food for the insects and 25 mL of moist soil is added to each jar. The jar is capped and the contents thoroughly mixed mechanically. Following this, ten 2nd instar rootworms are added to each jar and the jars are loosely capped to allow air exchange for the larvae. The treatments are held for 5 days when mortality counts are made. Missing larvae are presumed dead, since they decompose rapidly and cannot be found. The concentrations of active ingredient used in this test correspond approximately to 50 kg/ha. [table]

[6] = tested on: Tetranychus urticae (OP-resistant strain), 2-spotted spider mite (TSM); test: 2-spotted spider mite (TSM) plant dip test; set-up: key: 0 = no effect; 1 = 10-25% kill; 2 = 26-35% kill; 3 = 36-45% kill; 4 = 46-55% kill; 5 = 56-65% kill; 6 = 66-75% kill; 7 = 76-85% kill; 8 = 86-99% kill; 9 = 100% kill; conditions: mortality after 2 days
Method: as §1
Tetranychus urticae (OP-resistant strain), 2-spotted Spider Mite (TSM)
Sieva lima bean plants with primary leaves expanded to 7-8 cm are selected and cut back to one plant per pot. A small piece is cut from an infested leaf taken from the main colony and placed on each leaf of the test plants. This is done about 2 hours before treatment to allow the mites to move over to the test plant to lay eggs. The size of the cut, infested leaf is varied to obtain about 100 mites per leaf. At the time of test treatment, the piece of leaf used to transfer the mites is removed and discarded. The newly-infested plants are dipped in the test solution for 3 seconds with agitation and set in the hood to dry. After 2 days, one leaf is removed and mortality counts are made.

[7] = tested on: C. elegans (Bristol strain); test: Evaluation of test compounds against C. elegans (motility, 96-well plate); set-up: key: 9=complete kill in 4 hours; 8=complete kill in 24 hours; 7=markedly reduced motility in approximately 95% of worms in 24 hours; 0=normal motility, same as controls; conditions: motility at 4 and 24 hours
Method: Evaluation of Test Compounds Against C. elegans Cultures of C. elegans (Bristol strain from J. Lewis) are maintained on E. coli lawns on NG Agar Plates at 20° C. New cultures are established weekly. Nematodes for testing are washed from cultures using Na buffer. Compounds are dissolved in 80% acetone. The test material is micropipetted (25 μl) into a single well of a 96-well sterile tissue culture plate and the solvent allowed to evaporate. A freshly prepared volume (50 μl) of C. elegans in Na buffer is micropipetted into each treated well and several control wells per plate. Plates are incubated at 20° C. Observations for efficacy are made under a dissecting microscope at 4 and 24 hours post-immersion. Immediately prior to reading the plate, it is gently tapped to stimulate the movement of the worms. Activity is judged subjectively, but semi-quantitatively, based on the drug effects on motility of the adults and larvae.

Compound	SAW (300 ppm) rating [1]	M. incognita (150 ppm) score [2]	CA (300 ppm) rating [3]	SCR Eggs (1000 ppm) rating [4]	WCR (50 ppm) rating [5]	TSM (300 ppm) rating [6]	Rating Against C. elegans (150 ppm) [7]
O=[N+]([O-])CC(SCc1ccccc1)c1ccccc1Cl (racemic) [Example 93]	0	0	0	0	0	0	0
CCOC(=O)CSC(C[N+](=O)[O-])c1ccccc1Cl (stereo not drawn) [Example 89]	0	8	0	0	0	0	0
CCCCC(CC)COC(=O)CSC(C[N+](=O)[O-])c1ccccc1F (stereo not drawn) [Example 43]	4 (4 = 46-55% kill)	0	0	9 (9 = 100% kill)	7 (7 = 76-85% kill)	0	0
C=CCSC(C[N+](=O)[O-])c1ccccc1Cl (racemic) [Example 95]	0	0	0	0	4 (4 = 46-55% kill)	0	0
CCCCOC(=O)CSC(C[N+](=O)[O-])c1ccccc1F (stereo not drawn) [Example 41]	1 (1 = 10-25% kill)	9	0	0	9 (9 = 100% kill)	0	7
O=C(O)CSC(C[N+](=O)[O-])c1ccccc1Cl (racemic) [Example 96]	0	9	0	0	0	0	9
CCOC(=O)CSC(C[N+](=O)[O-])c1ccccc1F (stereo not drawn) [Example 40]	3 (3 = 36-45% kill)	9	0	0	9 (9 = 100% kill)	0	8
C=CCSC(C[N+](=O)[O-])c1ccccc1F (stereo not drawn) [Example 46]	1 (1 = 10-25% kill)	9	0	0	9 (9 = 100% kill)	0	7
CCCSC(C[N+](=O)[O-])c1ccccc1F (stereo not drawn) [Example 45]	0	0	0	7 (7 = 76-85% kill)	8 (8 = 86-99% kill)	0	0
CC(C)CCCCCOC(=O)CSC(C[N+](=O)[O-])c1ccccc1Cl (stereo not drawn) [Example 91]	0	0	0	0	0	0	0
COC(=O)CSC(C[N+](=O)[O-])c1ccccc1F (stereo not drawn) [Example 39]	4 (4 = 46-55% kill)	9	0	0	8 (8 = 86-99% kill)	0	9
CCCSC(C[N+](=O)[O-])c1ccc(C(C)C)cc1 (stereo not drawn) [Example 37]	0	0	0	0	0	0	0
COC(=O)CSC(C[N+](=O)[O-])c1ccccc1Cl (stereo not drawn) [Example 88]	0	8	0	0	0	0	

Reference: US6358883B1, “Pesticidal and parasiticidal use of 1-aryl-1-(substituted thio, sulfinyl and sulfonyl)-2-nitroethane compounds” (American Cyanamid Company, priority 1998, dated 2002)
